Experimental data reported in patent US6242468A, “Carbamate and urea compositions and neurotrophic uses” (priority 1998, dated 2001).

System: TH-positive dopaminergic neurons in the striatum
Test: MPTP Model of Parkinson's Disease; recovery of TH-positive dopaminergic neurons in the striatum
Assay type: in vivo, male CD1 white mice
Details: 4 mg/kg s.c.; MPTP 30 mg/kg i.p. for 5 days; compound along with MPTP and 5 further days; 18 days following MPTP
Method: MPTP lesioning of dopaminergic neurons in mice was used as an animal model of Parkinson's Disease. Four week old male CD1 white mice were dosed i.p. with 30 mg/kg of MPTP for 5 days. Test compounds (4 mg/kg), or vehicle, were administered s.c. along with the MPTP for 5 days, as well as for an additional 5 days following cessation of MPTP treatment. At 18 days following MPTP treatment, the animals were sacrificed and the striata were dissected and perfusion-fixed. Immunostaining was performed on saggital and coronal brain sections using anti-tyrosine hydroxylase […] to quantitate survival and recovery of dopaminergic neurons. In animals treated with MPTP and vehicle, a substantial loss of functional dopaminergic terminals was observed as compared to non-lesioned animals. […] Table III presents quantitation for the recovery of TH-positive dopaminergic neurons in the striatum of animals receiving compounds 1, 3, 4 and 5 in this model.

| SMILES | % Recovery of TH Immunostaining |
| --- | --- |
| O=C(OCCCc1cccnc1)[C@@H]1CCCN1C(=O)NC1CCCCC1 [Example 4, 3-(3-pyridyl)-1-propyl (2S)-1-[(cyclohexyl)carbamoyl]-pyrrolidine-2-carboxylate] | 59.79% |
| O=C(OCCCc1cccnc1)[C@@H]1CCCN1C(=S)NC1CCCCC1 [Example 3, 3-(3-pyridyl)-1-propyl (2S)-1-[(cyclohexyl)thiocarbamoyl]-pyrrolidine-2-carboxylate] | 56.13% |
| CCC(C)CNC(=O)N1CCC[C@H]1C(=O)OCCCc1cccnc1 (stereo partly drawn) [Example 1, 3-(3-pyridyl)-1-propyl (2S)-1-[(2-methylbutyl)carbamoyl]pyrrolidine-2-carboxylate] | 27.47% |
| O=C(OCCCc1cccnc1)[C@@H]1CCCN1C(=S)NC12CC3CC(CC(C3)C1)C2 [Example 5, 3-(3-pyridyl)-1-propyl (2S)-1-[(1-adamantyl)thiocarbamoyl]pyrrolidine-2-carboxylate] | 52.32% |
